# Data reported in PMC3639963, “A New Class of Small Molecule Inhibitor of BMP Signaling” (PLoS ONE, 2013).
# How the values were obtained:
# Test in all cases: Nanosyn kinase profiling
# Type in all cases: biochemical
# Details in all cases: read-out: Percentage inhibition; for inhibition at 0.1 µM: 0.1 µM inhibitor; for inhibition at 1 µM: 1 µM inhibitor
# AURKB = target: T1, AURKB (Homo sapiens, UniProt Q96GD4)
# T1 construct: purchased Nanosyn (enzymatic panel); SGC in-house recombinant human kinases (DSF panel); Invitrogen (ALK1-6)
# Outline: (§1)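 Percent inhibition of each kinase was measured with the inhibitor at 0.1 µM and at 1 µM, as part of a 200-kinase human selectivity panel.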
# P38γ = target: T2, P38γ (Homo sapiens, UniProt P53778)
# T2 construct: purchased Nanosyn (enzymatic panel); SGC in-house recombinant human kinases (DSF panel); Invitrogen (ALK1-6)
# T2 sequence (P53778 1-367): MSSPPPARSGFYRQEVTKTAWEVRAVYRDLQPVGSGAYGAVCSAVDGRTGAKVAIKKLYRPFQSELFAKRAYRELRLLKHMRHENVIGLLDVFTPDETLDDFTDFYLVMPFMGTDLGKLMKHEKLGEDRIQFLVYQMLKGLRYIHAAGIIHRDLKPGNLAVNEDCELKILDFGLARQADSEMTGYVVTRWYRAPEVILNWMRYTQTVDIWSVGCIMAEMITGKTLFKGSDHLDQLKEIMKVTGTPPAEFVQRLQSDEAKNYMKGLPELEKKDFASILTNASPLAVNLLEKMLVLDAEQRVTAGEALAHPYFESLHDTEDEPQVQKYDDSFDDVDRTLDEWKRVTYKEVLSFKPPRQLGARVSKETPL
# Outline: as §1
# CAMK1δ = target: T3, CAMK1δ (Homo sapiens, UniProt Q8IU85)
# T3 construct: purchased Nanosyn (enzymatic panel); SGC in-house recombinant human kinases (DSF panel); Invitrogen (ALK1-6)
# Outline: as §1
# EPHA3 = target: T4, EPHA3 (Homo sapiens, UniProt P29320)
# T4 construct: purchased Nanosyn (enzymatic panel); SGC in-house recombinant human kinases (DSF panel); Invitrogen (ALK1-6)
# T4 sequence (P29320 21-983): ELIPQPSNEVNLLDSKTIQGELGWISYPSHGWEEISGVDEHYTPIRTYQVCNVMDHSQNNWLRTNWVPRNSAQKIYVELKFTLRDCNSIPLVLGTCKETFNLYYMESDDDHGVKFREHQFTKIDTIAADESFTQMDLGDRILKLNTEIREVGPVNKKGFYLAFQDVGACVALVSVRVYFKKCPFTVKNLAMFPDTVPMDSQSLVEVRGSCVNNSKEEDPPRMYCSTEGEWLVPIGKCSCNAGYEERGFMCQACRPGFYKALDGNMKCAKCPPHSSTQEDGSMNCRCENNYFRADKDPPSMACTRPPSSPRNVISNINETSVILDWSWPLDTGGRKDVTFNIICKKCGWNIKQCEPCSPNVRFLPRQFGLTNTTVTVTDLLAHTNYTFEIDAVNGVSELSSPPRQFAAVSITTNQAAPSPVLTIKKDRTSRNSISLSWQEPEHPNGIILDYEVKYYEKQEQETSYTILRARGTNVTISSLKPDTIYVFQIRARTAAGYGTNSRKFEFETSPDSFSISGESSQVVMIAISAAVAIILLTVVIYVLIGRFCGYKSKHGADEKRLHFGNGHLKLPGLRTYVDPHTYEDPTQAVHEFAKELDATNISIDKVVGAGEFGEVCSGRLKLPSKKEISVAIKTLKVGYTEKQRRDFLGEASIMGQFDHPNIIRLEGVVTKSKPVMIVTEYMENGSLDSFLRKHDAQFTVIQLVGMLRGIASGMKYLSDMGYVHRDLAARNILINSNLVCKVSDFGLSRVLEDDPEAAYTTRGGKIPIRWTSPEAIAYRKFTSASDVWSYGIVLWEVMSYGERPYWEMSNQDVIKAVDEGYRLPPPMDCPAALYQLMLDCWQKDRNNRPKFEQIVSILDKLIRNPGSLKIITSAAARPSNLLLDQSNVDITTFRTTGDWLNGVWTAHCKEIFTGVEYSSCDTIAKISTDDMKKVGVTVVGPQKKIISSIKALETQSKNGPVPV
# Outline: as §1
# BMX = target: T5, BMX (Homo sapiens, UniProt P51813)
# T5 construct: purchased Nanosyn (enzymatic panel); SGC in-house recombinant human kinases (DSF panel); Invitrogen (ALK1-6)
# T5 sequence (P51813 1-675): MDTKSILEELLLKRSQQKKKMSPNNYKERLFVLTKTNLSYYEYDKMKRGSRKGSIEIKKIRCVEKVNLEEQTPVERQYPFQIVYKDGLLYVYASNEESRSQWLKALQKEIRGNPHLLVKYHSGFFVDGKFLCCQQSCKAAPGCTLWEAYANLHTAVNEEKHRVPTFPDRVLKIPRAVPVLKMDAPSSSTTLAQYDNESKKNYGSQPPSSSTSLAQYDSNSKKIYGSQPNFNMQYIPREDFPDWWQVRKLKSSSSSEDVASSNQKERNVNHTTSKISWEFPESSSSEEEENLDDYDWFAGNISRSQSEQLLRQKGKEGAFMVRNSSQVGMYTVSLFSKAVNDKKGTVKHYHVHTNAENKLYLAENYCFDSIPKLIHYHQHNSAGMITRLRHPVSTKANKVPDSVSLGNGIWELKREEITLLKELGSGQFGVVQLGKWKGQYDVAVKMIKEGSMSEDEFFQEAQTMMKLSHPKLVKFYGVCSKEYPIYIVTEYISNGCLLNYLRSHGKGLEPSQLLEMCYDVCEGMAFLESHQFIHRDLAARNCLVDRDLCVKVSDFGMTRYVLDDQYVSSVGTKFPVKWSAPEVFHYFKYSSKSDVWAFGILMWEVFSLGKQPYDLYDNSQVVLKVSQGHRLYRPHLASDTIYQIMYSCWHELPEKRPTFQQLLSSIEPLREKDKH
# Outline: as §1
# T1 sequence (Q96GD4 whole entry): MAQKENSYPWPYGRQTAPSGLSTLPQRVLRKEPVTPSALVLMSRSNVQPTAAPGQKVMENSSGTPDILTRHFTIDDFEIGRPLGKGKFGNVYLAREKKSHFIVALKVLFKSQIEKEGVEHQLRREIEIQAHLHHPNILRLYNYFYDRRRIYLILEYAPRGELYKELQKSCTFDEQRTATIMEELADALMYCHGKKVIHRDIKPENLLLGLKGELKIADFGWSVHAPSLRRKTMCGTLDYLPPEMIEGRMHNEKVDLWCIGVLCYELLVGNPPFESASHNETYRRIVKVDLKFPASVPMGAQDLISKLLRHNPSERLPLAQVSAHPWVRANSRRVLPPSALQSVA
# T3 sequence (Q8IU85 whole entry): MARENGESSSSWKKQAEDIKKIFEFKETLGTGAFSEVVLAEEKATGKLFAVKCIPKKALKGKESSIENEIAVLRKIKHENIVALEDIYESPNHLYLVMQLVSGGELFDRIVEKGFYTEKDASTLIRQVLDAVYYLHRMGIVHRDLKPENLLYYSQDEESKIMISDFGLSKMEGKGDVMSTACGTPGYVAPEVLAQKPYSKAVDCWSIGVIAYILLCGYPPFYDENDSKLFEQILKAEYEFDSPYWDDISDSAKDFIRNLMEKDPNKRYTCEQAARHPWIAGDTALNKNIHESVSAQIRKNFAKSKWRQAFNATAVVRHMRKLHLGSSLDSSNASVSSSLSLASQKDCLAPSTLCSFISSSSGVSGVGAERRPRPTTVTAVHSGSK
Compound,inhibition at 0.1 µM (AURKB) [%],inhibition at 1 µM (AURKB) [%],inhibition at 0.1 µM (P38γ) [%],inhibition at 1 µM (P38γ) [%],inhibition at 0.1 µM (CAMK1δ) [%],inhibition at 1 µM (CAMK1δ) [%],inhibition at 0.1 µM (EPHA3) [%],inhibition at 1 µM (EPHA3) [%],inhibition at 0.1 µM (BMX) [%],inhibition at 1 µM (BMX) [%]
"COc1cc(-c2cc(-c3cccc(O)c3)cnc2N)cc(OC)c1OC [K02288, 3-[6-amino-5-(3,4,5-trimethoxy-phenyl)-pyridin-3-yl]-phenol]",0.3,1.5,-1,-1,-2,-1,-6,4.3,0.5,19
c1ccc2c(-c3cnn4cc(-c5ccc(N6CCNCC6)cc5)cnc34)ccnc2c1 [LDN-193189],2.3,15,1.2,1.3,0.8,0.9,2.2,6.3,0.2,4
